Results as given in doi:10.1101/2021.01.25.428124v1 (biorxiv, 2021).

These compounds were tested against Methyl-coenzyme M reductase (MCR-I), Ni(I)-MCRred1 (Methanothermobacter marburgensis, UniProt P11558+P11560+P11562) (assay: biochemical).
Methyl-coenzyme M reductase (MCR-I), Ni(I)-MCRred1, sequence (P11558 2-550 limits assumed): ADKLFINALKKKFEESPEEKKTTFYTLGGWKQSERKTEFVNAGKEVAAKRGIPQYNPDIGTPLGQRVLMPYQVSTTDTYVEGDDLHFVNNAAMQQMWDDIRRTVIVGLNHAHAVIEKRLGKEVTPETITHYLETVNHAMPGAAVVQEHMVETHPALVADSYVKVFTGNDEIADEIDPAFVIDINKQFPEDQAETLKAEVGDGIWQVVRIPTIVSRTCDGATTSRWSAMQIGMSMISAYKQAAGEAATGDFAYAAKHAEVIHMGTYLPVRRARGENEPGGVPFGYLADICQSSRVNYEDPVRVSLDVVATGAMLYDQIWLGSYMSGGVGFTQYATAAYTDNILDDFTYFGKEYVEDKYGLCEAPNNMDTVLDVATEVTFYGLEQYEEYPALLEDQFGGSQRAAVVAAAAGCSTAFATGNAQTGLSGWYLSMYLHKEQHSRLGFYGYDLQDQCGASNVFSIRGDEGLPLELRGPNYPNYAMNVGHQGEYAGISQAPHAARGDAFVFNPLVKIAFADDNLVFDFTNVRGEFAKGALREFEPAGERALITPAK
Methyl-coenzyme M reductase (MCR-I), Ni(I)-MCRred1, sequence (P11560 2-443 limits assumed): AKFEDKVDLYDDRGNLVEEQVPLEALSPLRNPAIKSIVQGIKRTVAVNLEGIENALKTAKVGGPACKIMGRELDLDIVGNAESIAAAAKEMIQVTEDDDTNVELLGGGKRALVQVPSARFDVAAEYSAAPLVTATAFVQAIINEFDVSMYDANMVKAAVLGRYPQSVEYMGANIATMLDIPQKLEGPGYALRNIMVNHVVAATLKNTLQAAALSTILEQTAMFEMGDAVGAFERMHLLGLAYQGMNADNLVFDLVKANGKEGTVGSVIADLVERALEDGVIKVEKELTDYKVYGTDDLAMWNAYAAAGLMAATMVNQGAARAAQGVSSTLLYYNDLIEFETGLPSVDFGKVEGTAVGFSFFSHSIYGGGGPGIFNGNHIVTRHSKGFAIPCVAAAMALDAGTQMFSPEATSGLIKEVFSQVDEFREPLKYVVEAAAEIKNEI
Methyl-coenzyme M reductase (MCR-I), Ni(I)-MCRred1, sequence (P11562 2-249 limits assumed): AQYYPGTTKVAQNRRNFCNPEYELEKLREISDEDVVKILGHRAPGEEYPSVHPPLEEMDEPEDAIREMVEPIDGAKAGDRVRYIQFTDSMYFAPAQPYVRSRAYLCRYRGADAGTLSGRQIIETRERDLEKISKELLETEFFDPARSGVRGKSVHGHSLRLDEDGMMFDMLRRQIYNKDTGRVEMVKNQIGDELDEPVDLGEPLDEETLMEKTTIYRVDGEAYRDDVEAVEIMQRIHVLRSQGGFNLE
Format: binding
In the case of `CCCCS(=O)(=O)O` [But-SO3], the Kd is reported as 3300 ± 600 µM.
`C[C@@H](OP(=O)(O)O)[C@H](NC(=O)CCCCCSSCCS(=O)(=O)O)C(=O)O` [CoMSSCoB6] gave a Kd of 105 ± 10.9 µM.
`C[C@@H](OP(=O)(O)O)[C@H](NC(=O)CCCCCCSSCCS(=O)(=O)O)C(=O)O` [CoMSSCoB] was tested, and the Kd was 57.4 ± 5.4 µM.
For `CSCCS(=O)(=O)O` [methyl-SCoM, S-methyl-2-mercaptoethane sulfonate], the Kd was 27.5 ± 7.3 µM.
